The record followed here is patent US12060347B2 (BRISTOL-MYERS SQUIBB COMPANY, priority 2016, dated 2024).

Each structure is given as a SMILES string.

The target of the assay is T1, human PAR4 (Homo sapiens, UniProt Q96RI0).
T1 construct: expressed in transfected cells; host or cells: HEK293 PAR4 Clone 1.2A (BMS Arctic ID 383940)
T1 sequence (Q96RI0 18-385): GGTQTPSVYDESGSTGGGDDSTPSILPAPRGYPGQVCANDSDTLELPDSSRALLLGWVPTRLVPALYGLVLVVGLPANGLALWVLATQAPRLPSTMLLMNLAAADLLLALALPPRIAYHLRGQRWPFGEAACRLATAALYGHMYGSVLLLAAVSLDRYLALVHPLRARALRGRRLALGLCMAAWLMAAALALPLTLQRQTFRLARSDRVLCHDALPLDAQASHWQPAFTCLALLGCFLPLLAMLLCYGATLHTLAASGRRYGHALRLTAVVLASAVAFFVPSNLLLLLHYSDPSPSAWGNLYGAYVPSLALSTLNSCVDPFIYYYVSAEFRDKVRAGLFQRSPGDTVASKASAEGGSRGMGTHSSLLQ
Briefly: PAR4 FLIPR assay: antagonism of agonist-peptide-induced calcium mobilization in PAR4-expressing HEK293 cells. In kind it is cell-based. Conditions: H-Ala-Phe(4-F)-[…]NH2-induced intracellular calcium mobilization, 11-point curves. In general terms: Calcium flux is commonly read through the fluorescence of an indicator in the cells.

Usually IC50 stands for the midpoint of a concentration-inhibition curve. In the case of `COc1cnc2c(-c3nc4cc(F)c(O[C@@H](C)[C@@H](C)OC(=O)Nc5ccc(C(N)=O)nc5)nc4s3)cc(C)cc2n1` [Example 754, (2R,3S)-3-((6-fluoro-2-(2-methoxy-7-methylquinoxalin-5-yl)thiazolo[5,4-b]pyridin-5-yl)oxy)butan-2-yl (6-carbamoylpyridin-3-yl)carbamate], the IC50 is 0.3 nM.

Turning to `COCc1cnc2c(-c3nc4c(Cl)c(C)c(OC)cc4s3)cc(C)cc2n1` [Example 298, 4-chloro-6-methoxy-2-(2-(methoxymethyl)-7-methylquinoxalin-5-yl)-5-methylbenzo[d]thiazole], the IC50 was determined as 2.1 nM.

`COc1cnc2c(-c3nc4cc(F)c(OC[C@@H](C)OC(=O)Nc5cnc(C)nc5)cc4s3)cc(C)cc2n1` [Example 357, (R)-1-((5-fluoro-2-(2-methoxy-7-methylquinoxalin-5-yl)benzo[d]thiazol-6-yl)oxy)propan-2-yl (2-methylpyrimidin-5-yl)carbamate]: the IC50 amounted to 6.7 nM.

On to `COc1cnc2c(-c3nc4c(Cl)c(F)c(OC[C@@H](C)OC(=O)Nc5ccc(C#N)nc5)cc4s3)cc(C)cc2n1` [Example 371, (R)-1-((4-chloro-5-fluoro-2-(2-methoxy-7-methylquinoxalin-5-yl)benzo[d]thiazol-6-yl)oxy)propan-2-yl (6-cyanopyridin-3-yl)carbamate], for which the IC50 was determined as 1.8 nM.

Regarding `CNC(=O)c1ncc(NC(=O)O[C@H](C)[C@H](C)Oc2cc3sc(-c4cc(C)cc5nc(OC)cnc45)nc3cc2F)cn1` [Example 440, (2R,3S)-3-((5-fluoro-2-(2-methoxy-7-methylquinoxalin-5-yl)benzo[d]thiazol-6-yl)oxy)butan-2-yl (2-(methylcarbamoyl)pyrimidin-5-yl)carbamate], the IC50 came out at 0.8 nM.

On to `C=Cc1cnc2c(-c3cc4ccccc4o3)cc(C)cc2n1` [Example 131, 5-(benzofuran-2-yl)-7-methyl-2-vinylquinoxaline], for which the IC50 came out at 890 nM.

Turning to `COc1cnc2c(-c3nc4cc(F)c(O[C@@H](C)[C@@H](C)OC(=O)Nc5ccc(C(=O)NC[C@H](C)O)nc5)cc4s3)cc(C)cc2n1` [Example 441, (2R,3S)-3-((5-fluoro-2-(2-methoxy-7-methylquinoxalin-5-yl)benzo[d]thiazol-6-yl)oxy)butan-2-yl (6-(((S)-2-hydroxypropyl)carbamoyl)pyridin-3-yl)carbamate], the IC50 was 0.9 nM.

On to `COc1cc(C(O)C2(OC)CCC2)c2nc(-c3cc(C)cc4nc(OC)cnc34)sc2c1` (centres unmarked) [Example 666, (6-methoxy-2-(2-methoxy-7-methylquinoxalin-5-yl)benzo[d]thiazol-4-yl)(1-methoxycyclobutyl)methanol], for which the IC50 was 1.1 nM.

Regarding `COc1cnc2c(-c3nc4cc(F)c(O[C@@H](C)[C@@H](C)OC(=O)Nc5cnc(C(N)=O)nc5)cc4s3)cc(C)cc2n1` [Example 454, (2R,3S)-3-((5-fluoro-2-(2-methoxy-7-methylquinoxalin-5-yl)benzo[d]thiazol-6-yl)oxy)butan-2-yl (2-carbamoylpyrimidin-5-yl)carbamate], the IC50 is 1.3 nM.

Take `COCc1cnc2c(-c3nc4c(C(O)C5CCCCC5)cc(OC)cc4s3)cc(C)cc2n1` (centres unmarked) [Example 165, Cyclohexyl(6-methoxy-2-(2-(methoxymethyl)-7-methylquinoxalin-5-yl)benzo[d]thiazol-4-yl)methanol]: the IC50 is 1.2 nM.

On to `CNc1cnc2c(-c3nc4cc(F)c(O[C@@H](C)[C@@H](C)OC(=O)Nc5cnc(C)nc5)cc4s3)cc(C)cc2n1` [Example 390, (2R,3S)-3-((5-fluoro-2-(7-methyl-2-(methylamino)quinoxalin-5-yl)benzo[d]thiazol-6-yl)oxy)butan-2-yl (2-methylpyrimidin-5-yl)carbamate], for which the IC50 came to 3.6 nM.

For the compound `COc1cnc2c(-c3nc4c(C)c(F)c(OC)cc4s3)cc(C(O)C3CC3)cc2n1` (centres unmarked) [Example 246, Cyclopropyl(8-(5-fluoro-6-methoxy-4-methylbenzo[d]thiazol-2-yl)-3-methoxyquinoxalin-6-yl)methanol], the IC50 came to 140 nM.

Regarding `COc1cnc2c(-c3nc4cc(F)c(O[C@@H](C)[C@@H](C)OC(=O)Nc5ccc(C(=O)N6CCC[C@@H](O)C6)nc5)cc4s3)cc(C)cc2n1` [Example 483, (2R,3S)-3-((5-fluoro-2-(2-methoxy-7-methylquinoxalin-5-yl)benzo[d]thiazol-6-yl)oxy)butan-2-yl (6-((R)-3-hydroxypiperidine-1-carbonyl)pyridin-3-yl)carbamate], the IC50 was 0.8 nM.

Take `COc1cnc2c(-c3nc4cc(F)c(O[C@@H](C)[C@@H](C)OC(=O)Nc5ccnc(C(N)=O)c5)cc4s3)cc(C)cc2n1` [Example 453, (2R,3S)-3-((5-fluoro-2-(2-methoxy-7-methylquinoxalin-5-yl)benzo[d]thiazol-6-yl)oxy)butan-2-yl (2-carbamoylpyridin-4-yl)carbamate]: the IC50 came to 0.6 nM.

Turning to `COc1cnc2c(-c3nc4c(Cl)c(F)c(OCCO)cc4s3)cc(C)cc2n1` [Example 318, 2-((4-chloro-5-fluoro-2-(2-methoxy-7-methylquinoxalin-5-yl)benzo[d]thiazol-6-yl)oxy)ethanol], the IC50 came out at 7.8 nM.

As to `COc1ccc2oc(-c3cc(C)cc4nc(OC(F)F)cnc34)cc2c1` [Example 2, 2-(difluoromethoxy)-5-(5-methoxybenzofuran-2-yl)-7-methylquinoxaline], the concentration for half-maximal inhibition (IC50) was determined as 11 nM.

`COc1cnc2c(-c3nc4cc(F)c(O[C@H](C)COC(=O)Nc5cccnc5)cc4s3)cc(C)cc2n1` [Example 344, (R)-2-((5-fluoro-2-(2-methoxy-7-methylquinoxalin-5-yl)benzo[d]thiazol-6-yl)oxy)propyl pyridin-3-ylcarbamate]: the IC50 is 11 nM.

`COc1cnc2c(-c3nc4cc(F)c(O[C@@H](C)[C@@H](C)OC(=O)Nc5ccc(C(N)=O)nc5)cc4s3)cc(C)cc2n1` (stereo in doubt) [Example 391, (2R,3S)-3-((5-fluoro-2-(2-methoxy-7-methylquinoxalin-5-yl)benzo[d]thiazol-6-yl)oxy)butan-2-yl (6-carbamoylpyridin-3-yl)carbamate]: the IC50 amounted to 2 nM.

Consider `COCc1cnc2c(-c3nc4cc(C)c(OC)cc4s3)cc(C)cc2n1` [Example 276, 6-methoxy-2-(2-(methoxymethyl)-7-methylquinoxalin-5-yl)-5-methylbenzo[d]thiazole], for which the IC50 was 1.2 nM.

Regarding `COc1cnc2c(-c3nc4cc(F)c(O[C@@H](C)[C@@H](C)OC(=O)Nc5cnc(OC)nc5)cc4s3)cc(Cl)cc2n1` [Example 820, (2R,3S)-3-((2-(7-chloro-2-methoxyquinoxalin-5-yl)-5-fluorobenzo[d]thiazol-6-yl)oxy)butan-2-yl (2-methoxypyrimidin-5-yl)carbamate], the half-inhibitory concentration (IC50) came out at 1.7 nM.

For `COc1cnc2c(-c3nc4c(Cl)c(F)c(OC[C@H]5CNC(=O)O5)cc4s3)cc(C)cc2n1` [Example 622, (R)-5-(((4-chloro-5-fluoro-2-(2-methoxy-7-methylquinoxalin-5-yl)benzo[d]thiazol-6-yl)oxy)methyl)oxazolidin-2-one], the IC50 is 350 nM.

For the compound `COc1cnc2c(-c3nc4cc(F)c(O[C@@H](C)[C@@H](C)OC(=O)Nc5ccc(OCCO)nc5)cc4s3)cc(C)cc2n1` [Example 571, (2R,3S)-3-((5-fluoro-2-(2-methoxy-7-methylquinoxalin-5-yl)benzo[d]thiazol-6-yl)oxy)butan-2-yl (6-(2-hydroxyethoxy)pyridin-3-yl)carbamate], the IC50 worked out at 1 nM.

On to `Cc1cc(-c2nc3ccc(OCc4cscn4)cc3s2)c2ncc(OC(F)F)nc2c1` [Example 71, 2-(2-(difluoromethoxy)-7-methylquinoxalin-5-yl)-6-(thiazol-4-ylmethoxy) benzo[d]thiazole], for which the IC50 came out at 160 nM.

Regarding `COc1ccc2nc(-c3cc(C)cc4nc(OC(F)F)cnc34)sc2n1` [Example 23, 2-(2-(difluoromethoxy)-7-methylquinoxalin-5-yl)-5-methoxythiazolo[5,4-b]pyridine], the IC50 worked out at 5.3 nM.

For `COc1cnc2c(-c3nc4cc(F)c(OC[C@@H](C)OC(=O)Nc5cncc(CO)c5)cc4s3)cc(C)cc2n1` [Example 611, (R)-1-((5-fluoro-2-(2-methoxy-7-methylquinoxalin-5-yl)benzo[d]thiazol-6-yl)oxy)propan-2-yl (5-(hydroxymethyl)pyridin-3-yl)carbamate], the IC50 amounted to 2.1 nM.

Regarding `COc1cnc2c(-c3nc4cc(F)c(OC[C@@H](C)OC(=O)Nc5ccc(C)nc5)nc4s3)cc(C)cc2n1` [Example 681, (R)-1-((6-fluoro-2-(2-methoxy-7-methylquinoxalin-5-yl)thiazolo[5,4-b]pyridin-5-yl)oxy) propan-2-yl (6-methylpyridin-3-yl)carbamate], the IC50 is 0.4 nM.

Take `Cc1cc(-c2nc3cccc(NC(=O)OC(C)(C)C)c3s2)c2ncc(OC(F)F)nc2c1` [Example 14, tert-butyl (2-(2-(difluoromethoxy)-7-methylquinoxalin-5-yl)benzo[d]thiazol-7-yl) carbamate]: the IC50 worked out at 6.8 nM.

As to `COCc1cnc2c(-c3nc4c(s3)C(O)CCC4)cc(C)cc2n1` (centres unmarked) [Example 143, 2-(2-(methoxymethyl)-7-methylquinoxalin-5-yl)-4,5,6,7-tetrahydrobenzo[d]thiazol-7-ol], the IC50 was found to be 36 nM.

Turning to `CCc1cnc2c(-c3nc4cc(F)c(O[C@@H](C)[C@@H](C)OC(=O)Nc5cnc(C)nc5)cc4s3)cc(Cl)cc2c1` [Example 647, (2R,3S)-3-((2-(6-chloro-3-ethylquinolin-8-yl)-5-fluorobenzo[d]thiazol-6-yl)oxy)butan-2-yl(2-methylpyrimidin-5-yl)carbamate], the IC50 came to 19 nM.
